“Also recorded” adds a separate entry of the source.
Assays:
HIV-1 = format: cell-based
primary human PBM cells = assay: Cytotoxicity in primary human PBM cells; format: cell-based
Vero cells = assay: Cytotoxicity in Vero cells; format: cell-based, African Green monkey

## Cc1c2c(nn1CC(=O)NCc1ccccc1Cl)-c1ccccc1S(=O)(=O)N2C [Compound 6a]
HIV-1
  Anti-HIV-1 activity (in words): active
CEM cells
  Toxicity in CEM cells (in words): no toxicity
Primary human PBM cells
  Toxicity in primary human PBM cells (in words): no toxicity
Vero cells
  Toxicity in Vero cells (in words): toxic; also recorded: displayed toxicity

## Cc1c2c(nn1CC(=O)NCc1ccc(F)cc1)-c1ccccc1S(=O)(=O)N2C [Compound 6c]
CEM cells
  Toxicity in CEM cells (in words): toxic

## Cc1c2c(nn1CC(=O)NCc1ccccc1Br)-c1ccccc1S(=O)(=O)N2C [Compound 6d]
HIV-1
  Anti-HIV-1 activity (in words): active
CEM cells
  Toxicity in CEM cells (in words): toxic
Vero cells
  Toxicity in Vero cells (in words): toxic

## COc1ccccc1CNC(=O)Cn1nc2c(c1C)N(C)S(=O)(=O)c1ccccc1-2 [Compound 6e]
HIV-1
  Anti-HIV-1 activity (in words): active
CEM cells
  Toxicity in CEM cells (in words): no toxicity
Primary human PBM cells
  Toxicity in primary human PBM cells (in words): no toxicity
Vero cells
  Toxicity in Vero cells (in words): no toxicity

## COc1cccc(CNC(=O)Cn2nc3c(c2C)N(C)S(=O)(=O)c2ccccc2-3)c1 [Compound 6f]
CEM cells
  Toxicity in CEM cells (in words): toxic
Primary human PBM cells
  Toxicity in primary human PBM cells (in words): toxic
Vero cells
  Toxicity in Vero cells (in words): toxic

## COc1ccc(CNC(=O)Cn2nc3c(c2C)N(C)S(=O)(=O)c2ccccc2-3)cc1 [Compound 6g]
HIV-1
  Anti-HIV-1 activity (in words): active
CEM cells
  Toxicity in CEM cells (in words): no toxicity
Primary human PBM cells
  Toxicity in primary human PBM cells (in words): no toxicity
Vero cells
  Toxicity in Vero cells (in words): no toxicity

## Cc1ccc(CNC(=O)Cn2nc3c(c2C)N(C)S(=O)(=O)c2ccccc2-3)cc1 [Compound 6i]
HIV-1
  Anti-HIV-1 activity (in words): active
CEM cells
  Toxicity in CEM cells (in words): no toxicity
Primary human PBM cells
  Toxicity in primary human PBM cells (in words): no toxicity
Vero cells
  Toxicity in Vero cells (in words): no toxicity

## Cc1c2c(nn1CC(=O)Nc1ccccc1)-c1ccccc1S(=O)(=O)N2C [Compound 7a]
HIV-1
  Anti-HIV-1 activity (in words): effective inhibitors; also recorded: active

## Cc1c2c(nn1CC(=O)Nc1ccccc1F)-c1ccccc1S(=O)(=O)N2C [Compound 7b]
HIV-1
  Anti-HIV-1 activity (in words): effective inhibitors; also recorded: active

## Cc1c2c(nn1CC(=O)Nc1ccccc1Br)-c1ccccc1S(=O)(=O)N2C [Compound 7c]
HIV-1
  Anti-HIV-1 activity (in words): effective inhibitors; also recorded: active

## Cc1c2c(nn1CC(=O)Nc1cccc(Br)c1)-c1ccccc1S(=O)(=O)N2C [Compound 7d]
HIV-1
  Anti-HIV-1 activity (in words): effective inhibitors; also recorded: active

## COc1cccc(NC(=O)Cn2nc3c(c2C)N(C)S(=O)(=O)c2ccccc2-3)c1 [Compound 7e]
HIV-1
  Anti-HIV-1 activity (in words): effective inhibitors; also recorded: active
Vero cells
  Toxicity in Vero cells (in words): no toxicity
